Data as given in patent publication EP0771564A1, “INTERLEUKIN-5 PRODUCTION INHIBITOR” (TAISHO PHARMACEUTICAL CO. LTD, priority 1994, dated 1996).

Experiments:
IL-5 production = assay: Inhibition of IL-5 production by antigen-stimulated murine Th2 clone D10.G4.1 cells (IL-5 ELISA of culture supernatant); assay type: cell-based, mice; conditions: inhibitory effect on IL-5 production, D10.G4.1 cells with MMC-treated antigen presenting cells and conalbumin, 48 hours incubation
Description: Murine Th2 clone (D10.G4.1 cells) was purchased from ATCC. Antigen presenting cells were prepared by suspending 1 x 10^7 spleen cells of a 8-week-old female C3H/HeN mice in 5 ml of an RPMI-1640 medium and incubated together with 50 µg/ml of mitomycin C (MMC) at 37°C for 30 minutes and then washed with three 50 ml portions of RPMI-1640. To RPMI-1640 containing 10% bovine serium were added 0.5 U of IL-2 (produced by Genzyme) and 5 x 10^-5 M of 2-mercaptoethanol to prepare a medium for tissue culture.
In each well of a 96-well microtiter plate (produced by Corning Glass Works) were put each 50 µl/well of 4 x 10^5 cells/ml of D10.G4.1 cells, 2 x 10^6 cells/ml of MMC-treated antigen presenting cells, 400 µg/ml of conalbumin (produced by Sigma) as an antigen and the solution of the test compound in the tissue culture medium (to make 200 µl/well), and incubated in an incubator under 5% CO2 at 37°C for 48 hours. After completion of the incubation, the supernatant liquor of the culture was collected, and the cells were seprated by centrifugation. The IL-5 in the supernatant liquor was determined with an IL-5 ELISA kit produced by ENDOGEN.

ICR male mice = assay: Oral administration safety test in mice (mortality); assay type: in vivo; conditions: orally administered to ICR male mice, dose level of 100 mg/kg
Description: The compounds of Examples 1 and 2 were orally administered to ICR male mice grouped in fives.

Row | Compound | IC50 (IL-5 production) [nM] | death (ICR male mice) | IC50 (IL-5 production; Mus musculus) [nM]
1 | 3-O-(4-Biphenyl)acetyl-5-O-desosaminyl-6-O-methylerythronolide A 11,12-Cyclic Carbonate [Compound of Example 1] | < 400 |  | 
2 | CCC1OC(=O)C(C)C(Oc2c(F)c(F)c(F)c(F)c2[N+](=O)[O-])C(C)C(OC2OC(C)CC(N(C)C)C2O)C(C)(OC)CC(C)C(=O)C(C)C(O)C1(C)O (centres unmarked) [Compound of Example 2, 3-O-(2-Nitro-3,4,5,6-tetrafluoro)-phenyl-5-O-desosaminyl-6-O-methylerythronolide A] | < 100 | No death was observed | 
3 | CC[C@H]1OC(=O)[C@H](C)[C@@H](O[C@H]2C[C@@](C)(OC)[C@@H](O)[C@H](C)O2)[C@H](C)[C@@H](O[C@@H]2O[C@H](C)C[C@H](N(C)C)[C@H]2O)[C@](C)(O)C[C@@H](C)C(=O)[C@H](C)[C@@H](O)[C@]1(C)O [Erythromycin, reference compound] |  |  | 4500
4 | CC[C@H]1OC(=O)[C@H](C)[C@@H](O[C@H]2C[C@@](C)(OC)[C@@H](O)[C@H](C)O2)[C@H](C)[C@@H](O[C@@H]2O[C@H](C)C[C@H](N(C)C)[C@H]2O)[C@](C)(O)C[C@@H](C)/C(=N\OCOCCOC)[C@H](C)[C@@H](O)[C@]1(C)O [Roxithromycin, reference compound] |  |  | 930
